Two compounds from publication doi:10.1101/2025.05.12.653380v2 (biorxiv, 2026) can be followed below.

In the assay the target is T1, HPC (helicase-primase complex) of HHV1, UL5-UL52-UL8 (Human alphaherpesvirus 1 strain 17, UniProt P10189+P10236).
T1 sequence (P10189 1-882): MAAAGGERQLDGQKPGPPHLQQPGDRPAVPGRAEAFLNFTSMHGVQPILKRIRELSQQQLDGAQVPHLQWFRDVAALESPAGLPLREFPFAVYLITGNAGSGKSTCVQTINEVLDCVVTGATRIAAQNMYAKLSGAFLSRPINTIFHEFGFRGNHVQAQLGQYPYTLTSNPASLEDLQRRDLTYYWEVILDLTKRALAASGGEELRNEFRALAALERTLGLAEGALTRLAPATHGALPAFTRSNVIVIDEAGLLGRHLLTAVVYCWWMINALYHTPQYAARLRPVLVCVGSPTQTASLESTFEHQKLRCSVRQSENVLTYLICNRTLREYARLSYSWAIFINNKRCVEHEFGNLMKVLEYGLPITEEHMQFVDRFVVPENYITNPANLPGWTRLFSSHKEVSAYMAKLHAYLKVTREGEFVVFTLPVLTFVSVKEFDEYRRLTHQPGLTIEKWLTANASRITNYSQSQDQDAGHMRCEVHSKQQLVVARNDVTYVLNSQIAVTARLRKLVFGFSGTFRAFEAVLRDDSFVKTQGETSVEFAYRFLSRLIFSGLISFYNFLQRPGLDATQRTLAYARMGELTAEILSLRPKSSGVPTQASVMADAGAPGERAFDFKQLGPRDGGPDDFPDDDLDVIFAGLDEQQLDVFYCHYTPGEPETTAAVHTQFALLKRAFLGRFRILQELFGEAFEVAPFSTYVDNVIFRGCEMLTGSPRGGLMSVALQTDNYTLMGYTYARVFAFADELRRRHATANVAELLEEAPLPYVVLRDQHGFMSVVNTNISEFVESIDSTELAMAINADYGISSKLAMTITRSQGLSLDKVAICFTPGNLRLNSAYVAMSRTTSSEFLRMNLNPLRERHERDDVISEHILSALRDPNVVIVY
T1 sequence (P10236 1-1058): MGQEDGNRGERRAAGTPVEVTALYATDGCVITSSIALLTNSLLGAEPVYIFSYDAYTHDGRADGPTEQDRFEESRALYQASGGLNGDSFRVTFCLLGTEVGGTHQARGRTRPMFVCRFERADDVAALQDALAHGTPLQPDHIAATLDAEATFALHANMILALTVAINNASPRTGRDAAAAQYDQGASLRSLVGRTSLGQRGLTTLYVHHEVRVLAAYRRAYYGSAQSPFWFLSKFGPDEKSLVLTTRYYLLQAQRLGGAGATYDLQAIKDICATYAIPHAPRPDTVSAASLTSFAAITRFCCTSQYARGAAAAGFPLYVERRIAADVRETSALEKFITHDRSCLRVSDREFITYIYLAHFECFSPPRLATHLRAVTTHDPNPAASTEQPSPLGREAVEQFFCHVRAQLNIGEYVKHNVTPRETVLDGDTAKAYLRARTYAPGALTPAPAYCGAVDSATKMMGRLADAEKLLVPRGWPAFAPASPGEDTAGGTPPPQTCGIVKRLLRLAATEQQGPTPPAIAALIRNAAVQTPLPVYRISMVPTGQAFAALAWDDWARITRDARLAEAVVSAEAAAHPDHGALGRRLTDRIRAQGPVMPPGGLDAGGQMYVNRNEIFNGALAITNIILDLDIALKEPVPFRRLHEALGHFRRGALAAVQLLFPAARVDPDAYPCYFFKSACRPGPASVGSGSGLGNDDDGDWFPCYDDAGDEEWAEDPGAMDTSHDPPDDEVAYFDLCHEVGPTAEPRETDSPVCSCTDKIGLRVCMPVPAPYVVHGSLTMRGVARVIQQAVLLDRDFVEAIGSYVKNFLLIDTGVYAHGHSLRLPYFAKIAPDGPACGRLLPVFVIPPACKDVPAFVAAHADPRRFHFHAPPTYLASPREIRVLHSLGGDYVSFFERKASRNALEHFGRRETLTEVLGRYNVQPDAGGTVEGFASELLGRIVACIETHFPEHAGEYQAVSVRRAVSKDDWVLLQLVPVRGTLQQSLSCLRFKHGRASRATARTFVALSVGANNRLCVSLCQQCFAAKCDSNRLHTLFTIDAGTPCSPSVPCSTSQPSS
T1 sequence (P10192 1-750 partner): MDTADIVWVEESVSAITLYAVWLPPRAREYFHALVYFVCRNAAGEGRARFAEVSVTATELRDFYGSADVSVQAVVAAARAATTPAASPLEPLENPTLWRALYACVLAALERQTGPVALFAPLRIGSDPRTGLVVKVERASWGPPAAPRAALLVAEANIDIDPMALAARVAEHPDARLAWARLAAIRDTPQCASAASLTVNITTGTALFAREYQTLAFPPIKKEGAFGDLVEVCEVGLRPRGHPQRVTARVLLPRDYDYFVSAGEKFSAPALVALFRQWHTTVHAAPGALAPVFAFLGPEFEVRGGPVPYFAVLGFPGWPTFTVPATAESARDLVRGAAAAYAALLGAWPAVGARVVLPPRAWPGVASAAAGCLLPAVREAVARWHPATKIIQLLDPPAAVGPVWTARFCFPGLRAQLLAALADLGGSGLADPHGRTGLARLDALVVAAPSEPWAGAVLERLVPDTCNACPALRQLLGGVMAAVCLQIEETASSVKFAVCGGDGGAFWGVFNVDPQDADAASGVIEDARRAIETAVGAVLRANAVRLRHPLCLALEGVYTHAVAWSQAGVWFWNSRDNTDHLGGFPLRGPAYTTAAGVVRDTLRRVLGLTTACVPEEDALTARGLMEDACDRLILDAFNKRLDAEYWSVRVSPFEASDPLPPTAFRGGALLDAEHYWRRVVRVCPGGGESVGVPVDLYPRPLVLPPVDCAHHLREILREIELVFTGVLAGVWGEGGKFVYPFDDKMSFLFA
Briefly: NADH-coupled ATPase assay, Morrison fit of Kiapp, mixed inhibition model. The class given is biochemical.

The structures appear in SMILES notation.

In turn, `Cc1nc(N(C)C(=O)Cc2ccc(-c3ccccn3)cc2)sc1S(N)(=O)=O` [pritelivir] yielded a Ki of 1.99 ± 0.18 nM.

In turn, `Cc1cccc(C)c1N(CC(=O)Nc1ccc(-c2ncon2)cc1)C(=O)C1CCS(=O)(=O)CC1` [amenamevir] had a Ki of 1.84 ± 0.16 nM.
